In patent US5215986A, “5-hydroxy-2-pyrimidinylmethylene oxaza heterocycles” (Warner-Lambert Company, priority 1992, dated 1993):

Columns and labels:
5-Lipoxygenase = assay: ARBL whole cell 5-lipoxygenase assay (LTB4 formation in RBL-1 cells); assay type: cell-based, rat; conditions: 10 μm concentration, A23187 stimulated, LTB4 by RIA
Protocol: (§1) ARBL/ARBC Whole Cell 5-Lipoxygenase and Cyclooxygenase Assays The rat basophilic leukemia cell line (RBL 1) was obtained from the American Type Culture Collection (Rockville, Md.). Radioimmunoassay (RIA) kits of LTB4 and PGF2α were obtained from Amersham (Arlington Heights, Ill.) and Seragen (Boston, Mass.), respectively. RBL-1 cells are grown in suspension culture in Eagle's minimum essential medium supplemented with 12% fetal bovine serum at 37° C. in an incubator supplied with air 5% carbon dioxide. Cells are harvested by centrifugation. They are washed with cold phosphate buffered saline pH 7.4 (PBS; NaCl, 7.1 g; Na2 HPO4, 1.15 g; KH2 PO4, 0.2 g; and KCl, 0.2 g/l). Cells are finally suspended in PBS containing 1.0 mM calcium at a density of 2×10^6 cells/ml. Cells are incubated with and without test agent (in DMSO) (1% DMSO is without effect on arachidonic acid metabolism) for ten minutes at room temperature. Calcium ionophore A23187 (5 μM) is added and cells are incubated for seven minutes at 37° C. The reaction is stopped by chilling the tubes on ice for ten minutes. Cells are separated by centrifugation and the supernatant is stored at -20°. Aliquots (100 μl) are analyzed for LTB4 and PGF2α using radioimmunoassay kits as provided by the supplier. […]

Cyclooxygenase = assay: ARBC whole cell cyclooxygenase assay (PGF2α formation in RBL-1 cells); assay type: cell-based, rat; conditions: 10 μm, A23187 stimulated, PGF2α by RIA
Protocol: as §1

Structure (SMILES): CN1OCC/C(=C\c2nc(C(C)(C)C)c(O)c(C(C)(C)C)n2)C1=O [(E)-4-[[4,6-Bis(1,1-dimethylethyl)-5-hydroxy-2-pyrimidinyl]methylene]tetrahydro-2-methyl-2H-1,2-oxazin-3-one]
- inhibition for ARBL (5-Lipoxygenase): 84%
- inhibition for ARBC (Cyclooxygenase): 88%
